The record followed here is ChEMBL document CHEMBL4196150, “Structurally Diverse Highly Oxygenated Triterpenoids from the Roots of Ailanthus altissima and Their Cytotoxicity” (J Nat Prod, 2018).

What all share (format): functional, cell-based
Assay [1] deals with A549. Description: Cytotoxicity against human A549 cells after 72 hrs by MTT assay. The settings on record: A549, 72 h.
The subject of assay [2] is HeLa. Description: Cytotoxicity against human HeLa cells after 72 hrs by MTT assay.
In assay [3] the test system is 786-0. Description: Cytotoxicity against human 786-O cells after 72 hrs by MTT assay. The settings on record: 786-0, 72 h.
For assay [4], the system named is HepG2. Description: Cytotoxicity against human HepG2 cells after 72 hrs by MTT assay. The settings on record: HepG2, 72 h.

With `C[C@@H](C[C@@H](O)[C@H](O)C(C)(C)O)[C@@H]1CC[C@]2(C)C3=CC[C@H]4C(C)(C)C(=O)CC[C@]4(C)[C@H]3CC[C@@]12C`, the concentration for half-maximal inhibition (IC50) in assay [1], in assay [2], in assay [3] and in assay [4] was above 40 µM throughout.

For `C=C(C)[C@H](O)[C@H]1C=C([C@@H]2CC=C3[C@]4(C)[C@H](O)C[C@H]5C(C)(C)OC(=O)C=C[C@]5(C)[C@H]4[C@H](OC(=O)/C(C)=C/C)C[C@]32C)C(=O)O1`, the IC50 in assay [1], in assay [2], in assay [3] and in assay [4] was above 40 µM throughout.

For `CC(C)(O)[C@@H]1OC[C@H]([C@@H]2CC[C@]3(C)C4=CC[C@H]5C(C)(C)C(=O)CC[C@]5(C)[C@H]4CC[C@@]23C)C[C@H]1O`, the IC50 in assay [1], in assay [2], in assay [3] and in assay [4] was above 40 µM each time.

Take `CC(C)(O)[C@@H]1OC[C@H]([C@@H]2CC[C@]3(C)C4=CC(=O)[C@H]5C(C)(C)C(=O)CC[C@]5(C)[C@H]4CC[C@@]23C)C[C@H]1O`: the IC50 in assay [1], in assay [2], in assay [3] and in assay [4] was above 40 µM throughout.

In the case of `C/C=C(\C)C(=O)O[C@@H]1C[C@]2(C)C(=CC[C@H]2C2=C[C@H]([C@H](O)C(C)(C)OC)OC2=O)[C@]2(C)[C@H](O)C[C@H]3C(C)(C)OC(=O)C=C[C@]3(C)[C@@H]12`, the 50% inhibitory concentration (IC50) in assay [1], in assay [2], in assay [3] and in assay [4] was above 40 µM in each case.

As to `CC1(C)C(=O)CC[C@]2(C)[C@H]3C[C@@H](O)[C@@H]4[C@@H]([C@]5(C)CCC(=O)O5)CC[C@@]4(C)[C@]3(C)CC[C@@H]12`, the IC50 in assay [1], in assay [2], in assay [3] and in assay [4] was above 40 µM throughout.

As to `C/C=C(\C)C(=O)O[C@@H]1C[C@]2(C)C(=CC[C@H]2[C@@H]2C[C@H]([C@H](O)C(C)(C)OC)O[C@H]2OC)[C@]2(C)[C@H](O)C[C@H]3C(C)(C)OC(=O)C=C[C@]3(C)[C@@H]12`, the IC50 in assay [1], in assay [2], in assay [3] and in assay [4] was above 40 µM throughout.

Regarding `COC(C)(C)[C@@H](O)[C@H]1C=C([C@@H]2CC(=O)[C@@H]3[C@@]2(C)CC[C@@H]2[C@@]4(C)C=CC(=O)OC(C)(C)[C@@H]4C[C@@H](OC(C)=O)[C@]23C)C(=O)O1`, the IC50 in assay [1], in assay [2], in assay [3] and in assay [4] was above 40 µM throughout.

For `COC(=O)CC[C@]1(C)[C@H]2CC[C@@]3(C)[C@H]([C@@H](C)C[C@@H](O)[C@H](O)C(C)(C)O)CC[C@]3(C)C2=CC[C@H]1C(C)(C)O`, the IC50 worked out at 38.6 µM in assay [1], 38.4 µM in assay [2], 27.4 µM in assay [3] and 35.5 µM in assay [4].

For `C/C=C(\C)C(=O)O[C@@H]1C[C@]2(C)C(=CC[C@H]2C2=C[C@H]([C@H](O)C(C)(C)O)OC2=O)[C@]2(C)[C@H](O)C[C@H]3C(C)(C)OC(=O)C=C[C@]3(C)[C@@H]12`, the IC50 in assay [1], in assay [2], in assay [3] and in assay [4] was above 40 µM throughout.

In the case of `C/C=C(\C)C(=O)O[C@@H]1C[C@]2(C)C(=CC[C@H]2C2=CO[C@@H]([C@H](O)C(C)(C)O)C2)[C@]2(C)[C@H](O)C[C@H]3C(C)(C)OC(=O)C=C[C@]3(C)[C@@H]12`, the IC50 in assay [1] was found to be 39.8 µM; in assay [2], 33.2 µM; in assay [3], 34.4 µM; in assay [4], 38.8 µM.

Turning to `C/C=C(\C)C(=O)O[C@@H]1C[C@]2(C)C(=CC[C@H]2[C@@H]2C[C@H]([C@H](O)C(C)(C)OC)O[C@@H]2OC)[C@]2(C)[C@H](O)C[C@H]3C(C)(C)OC(=O)C=C[C@]3(C)[C@@H]12`, the IC50 in assay [1] came to 12.5 µM; in assay [2], 38.4 µM; in assay [3], 8.2 µM; in assay [4], 38.8 µM.

As to `CC1(C)C(=O)CC[C@]2(C)[C@H]3CC[C@@H]4[C@@H]([C@]5(C)CCC(=O)O5)CC[C@@]4(C)[C@]3(C)CC[C@@H]12` [CABRALELACTONE], the IC50 in assay [1], in assay [2], in assay [3] and in assay [4] was above 40 µM each time.

Take `COc1cc2c(c(OC)c1OC)-c1ccc(OC)c(=O)cc1[C@@H](NC(C)=O)CC2` [COLCHICINE]: the values for the IC50 in assay [1], in assay [3] and in assay [4] were 0.043 µM, 0.022 µM and 0.078 µM, respectively.
